Literature values, collected in patent publication US20070275060A1, “Extended release solid pharmaceutical composition containing carbidopa and levodopa” (OSMOTICA COSTA RICA SOCIEDAD ANONIMA, priority 2005, published 2007).

Details: orally administered

time of peak concentrations: 30 to 120 min
SMILES: N[C@@H](Cc1ccc(O)c(O)c1)C(=O)O [LD]
